# Tests used:
# [1] = Apparent permeability across RRCK cells; type: ADME, cell-based, Canis lupus familiaris, MDCKII-LE; settings: dog, MDCK
# [2] = Lipophilicity, log D of the compound at pH 7.4; type: physicochemical; settings: buffer
# [3] = target: T1, Hexokinase-4 (Homo sapiens) (UniProt P35557); assay: Activation of recombinant human glucokinase assessed as increase in enzyme Vmax for glucose by G6PDH/NADP coupled assay relative to control
# T1 sequence (whole entry): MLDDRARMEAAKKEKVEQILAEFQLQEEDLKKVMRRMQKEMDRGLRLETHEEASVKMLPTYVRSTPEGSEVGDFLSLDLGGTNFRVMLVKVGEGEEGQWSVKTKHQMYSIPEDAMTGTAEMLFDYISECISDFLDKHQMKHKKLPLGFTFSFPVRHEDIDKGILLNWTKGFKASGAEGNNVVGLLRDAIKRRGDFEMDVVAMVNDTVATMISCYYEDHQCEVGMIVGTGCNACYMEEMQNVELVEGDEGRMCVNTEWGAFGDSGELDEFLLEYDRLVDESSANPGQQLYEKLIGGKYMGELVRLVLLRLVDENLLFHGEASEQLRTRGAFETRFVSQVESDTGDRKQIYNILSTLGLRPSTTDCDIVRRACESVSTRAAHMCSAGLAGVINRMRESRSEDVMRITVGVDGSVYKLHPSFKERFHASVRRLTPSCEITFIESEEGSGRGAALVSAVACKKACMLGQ
# [4] = target: T1, Hexokinase-4 (Homo sapiens); assay: Activation of recombinant human glucokinase assessed as decrease in enzyme Km for glucose by G6PDH/NADP coupled assay relative to control
# Hexokinase-4 [5] = target: T2, Hexokinase-4 (Homo sapiens, UniProt P35557); assay: Activation of recombinant human glucokinase by G6PDH/NADP coupled assay
# T2 sequence (P35557 whole entry): T1 sequence (whole entry)
# [6] = Intrinsic clearance in human liver microsomes; type: ADME; settings: read-out: CLH
# [7] = Organic anion transporter-mediated drug uptake in rat hepatocytes assessed as active uptake; type: ADME, cell-based, Hepatocyte
# [8] = Organic anion transporter-mediated drug uptake in rat hepatocytes assessed as passive uptake; type: ADME, cell-based, Hepatocyte
# [9] = Organic anion transporter-mediated drug uptake in rat hepatocytes assessed as total uptake; type: ADME, cell-based, Hepatocyte
# [10] = Apparent permeability in RRCK cells at pH 5.5; type: ADME, cell-based, Canis lupus familiaris, MDCKII-LE; settings: dog, MDCK
# [11] = Apparent permeability in RRCK cells at pH 6.5; type: ADME, cell-based, Canis lupus familiaris, MDCKII-LE; settings: dog, MDCK
# [12] = Apparent permeability in RRCK cells at pH 7.4; type: ADME, cell-based, Canis lupus familiaris, MDCKII-LE; settings: dog, MDCK
# OATP1B3 = target: T3, OATP1B3 (Homo sapiens, UniProt Q9NPD5); assay: Activity at OATP1B3 (unknown origin) transfected in HEK cells assessed as transporter-mediated cellular uptake relative to mock-transfected HEK cells; type: ADME, cell-based; settings: HEK293 cells transfected with OATP1B3, read-out: FC
# T3 sequence (Q9NPD5 whole entry): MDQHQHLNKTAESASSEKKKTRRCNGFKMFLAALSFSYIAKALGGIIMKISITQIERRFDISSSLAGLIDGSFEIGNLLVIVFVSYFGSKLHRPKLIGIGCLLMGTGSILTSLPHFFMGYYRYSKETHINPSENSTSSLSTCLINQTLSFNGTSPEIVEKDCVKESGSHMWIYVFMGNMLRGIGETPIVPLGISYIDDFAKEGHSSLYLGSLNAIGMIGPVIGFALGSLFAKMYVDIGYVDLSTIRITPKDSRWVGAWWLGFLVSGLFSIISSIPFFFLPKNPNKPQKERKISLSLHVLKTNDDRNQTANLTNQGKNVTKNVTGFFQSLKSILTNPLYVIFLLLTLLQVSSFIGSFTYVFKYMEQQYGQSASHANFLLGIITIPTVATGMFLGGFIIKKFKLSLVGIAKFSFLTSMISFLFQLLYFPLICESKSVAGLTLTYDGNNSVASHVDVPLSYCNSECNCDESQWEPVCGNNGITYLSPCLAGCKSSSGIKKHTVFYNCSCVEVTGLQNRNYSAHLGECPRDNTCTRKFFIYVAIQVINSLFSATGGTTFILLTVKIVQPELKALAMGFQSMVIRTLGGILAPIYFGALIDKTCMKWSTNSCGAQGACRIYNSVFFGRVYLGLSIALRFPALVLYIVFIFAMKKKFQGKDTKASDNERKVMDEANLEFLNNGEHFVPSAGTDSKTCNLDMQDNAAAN
# OATP1B1 = target: T4, OATP1B1 (Homo sapiens, UniProt Q9Y6L6); assay: Activity at OATP1B1 (unknown origin) transfected in HEK cells assessed as transporter-mediated cellular uptake relative to mock-transfected HEK cells; type: ADME, cell-based; settings: HEK293 cells transfected with OATP1B1, read-out: FC
# T4 sequence (Q9Y6L6 whole entry): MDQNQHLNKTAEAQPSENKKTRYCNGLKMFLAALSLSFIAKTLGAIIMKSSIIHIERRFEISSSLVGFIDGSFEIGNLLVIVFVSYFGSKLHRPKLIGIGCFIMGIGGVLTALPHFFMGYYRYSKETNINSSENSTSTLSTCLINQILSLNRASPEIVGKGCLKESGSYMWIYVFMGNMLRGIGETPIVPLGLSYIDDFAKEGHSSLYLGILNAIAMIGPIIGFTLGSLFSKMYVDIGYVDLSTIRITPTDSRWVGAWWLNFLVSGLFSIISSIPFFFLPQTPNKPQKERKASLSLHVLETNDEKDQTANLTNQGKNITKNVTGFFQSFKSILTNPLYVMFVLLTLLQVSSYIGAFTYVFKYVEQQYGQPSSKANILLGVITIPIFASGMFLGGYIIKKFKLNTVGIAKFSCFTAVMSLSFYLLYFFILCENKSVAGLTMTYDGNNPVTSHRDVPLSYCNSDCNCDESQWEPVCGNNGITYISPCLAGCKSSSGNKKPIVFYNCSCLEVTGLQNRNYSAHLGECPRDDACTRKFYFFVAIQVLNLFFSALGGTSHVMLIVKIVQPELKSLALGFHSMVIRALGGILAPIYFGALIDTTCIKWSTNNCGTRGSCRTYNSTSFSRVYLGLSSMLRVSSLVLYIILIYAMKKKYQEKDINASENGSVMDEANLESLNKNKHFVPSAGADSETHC
# Hexokinase-4 [13] = target: T5, Hexokinase-4 (Rattus norvegicus, UniProt P17712); assay: Activation of glucokinase in Wistar rat hepatocytes assessed as nuclear to cytosolic translocation of protein by immunofluorescence assay; type: cell-based, Hepatocyte
# T5 sequence (P17712 whole entry): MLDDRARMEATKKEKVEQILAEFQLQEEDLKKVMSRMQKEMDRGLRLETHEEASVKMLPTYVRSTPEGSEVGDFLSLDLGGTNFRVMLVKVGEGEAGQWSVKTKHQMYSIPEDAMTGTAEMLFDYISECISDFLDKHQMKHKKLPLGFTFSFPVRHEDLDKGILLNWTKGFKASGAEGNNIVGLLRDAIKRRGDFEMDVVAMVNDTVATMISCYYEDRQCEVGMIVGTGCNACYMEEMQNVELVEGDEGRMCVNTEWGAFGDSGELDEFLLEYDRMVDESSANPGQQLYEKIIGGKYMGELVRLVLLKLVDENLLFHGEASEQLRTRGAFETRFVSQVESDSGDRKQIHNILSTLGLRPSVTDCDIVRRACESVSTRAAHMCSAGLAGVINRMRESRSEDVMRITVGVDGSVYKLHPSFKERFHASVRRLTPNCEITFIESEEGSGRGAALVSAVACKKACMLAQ
# Rattus norvegicus [14] = assay: Antidiabetic activity in Goto-Kakizaki rat diabetic model assessed as reduction in glucose excursion AUC at 24 mg/kg, iv administered as infusion for 4 hrs measured after 2 hrs by oral glucose tolerance test relative to control; type: functional; design: scale not given: the % may be the effect or the level left
# Rattus norvegicus [15] = assay: Antihyperglycemic activity in rat assessed as liver to plasma AUC ratio at EC50 dose, iv administered as infusion up to 4 days; type: functional
# Rattus norvegicus [16] = assay: Antihyperglycemic activity in rat assessed as liver to plasma AUC ratio at 5 mg/kg, iv administered as bolus after 1 to 6 hrs; type: functional
# [17] = Oral bioavailability in dog at 5 mg/kg; type: ADME, organism-based, Canis lupus familiaris; settings: in vivo
# [18] = Oral bioavailability in rat at 5 mg/kg; type: ADME, organism-based; settings: in vivo
# [19] = Volume of distribution at steady state in dog at 1 mg/kg, iv; type: ADME, organism-based, Canis lupus familiaris; design: dose 1 mg/kg, route intravenous; settings: in vivo, read-out: Vdss
# [20] = Volume of distribution at steady state in rat at 1 mg/kg, iv; type: ADME, organism-based; design: dose 1 mg/kg, route intravenous; settings: in vivo, read-out: Vdss
# [21] = Half life in dog at 1 mg/kg, iv; type: ADME, organism-based, Canis lupus familiaris; design: dose 1 mg/kg, route intravenous; settings: in vivo
# [22] = Half life in rat at 1 mg/kg, iv; type: ADME, organism-based; design: dose 1 mg/kg, route intravenous; settings: in vivo
# [23] = Clearance in dog at 1 mg/kg, iv; type: ADME, organism-based, Canis lupus familiaris; design: dose 1 mg/kg, route intravenous; settings: in vivo
# [24] = Clearance in rat at 1 mg/kg, iv; type: ADME, organism-based; design: dose 1 mg/kg, route intravenous; settings: in vivo
# [25] = Cmax in dog at 5 mg/kg, po; type: ADME, organism-based, Canis lupus familiaris; design: dose 5 mg/kg, route oral; settings: in vivo
# [26] = Cmax in dog at 1 mg/kg, iv; type: ADME, organism-based, Canis lupus familiaris; design: dose 1 mg/kg, route intravenous; settings: in vivo
# [27] = Cmax in rat at 5 mg/kg, po; type: ADME, organism-based; design: dose 5 mg/kg, route oral; settings: in vivo
# [28] = Cmax in rat at 1 mg/kg, iv; type: ADME, organism-based; design: dose 1 mg/kg, route intravenous; settings: in vivo
# [29] = AUC (0 to 24 hrs) in dog at 5 mg/kg, po; type: ADME, organism-based, Canis lupus familiaris; design: time < 24 hr, dose 5 mg/kg, route oral; settings: plasma
# [30] = AUC (0 to 24 hrs) in dog at 1 mg/kg, iv; type: ADME, organism-based, Canis lupus familiaris; design: time < 24 hr, dose 1 mg/kg, route intravenous; settings: plasma
# [31] = AUC (0 to 24 hrs) in rat at 1 mg/kg, iv; type: ADME, organism-based; design: time < 24 hr, dose 1 mg/kg, route intravenous; settings: plasma
# [32] = AUC (0 to 24 hrs) in rat at 5 mg/kg, po; type: ADME, organism-based; design: time < 24 hr, dose 5 mg/kg, route oral; settings: plasma
# Hexokinase-4 [33] = target: T5, Hexokinase-4; assay: Activation of glucokinase in rat INS-1 cells assessed as glucose-stimulated insulin secretion; type: cell-based, INS1
# [34] = Aqueous kinetic solubility of the compound at pH 6.5; type: physicochemical; settings: read-out: Kinetic_solubility
# [35] = Aqueous solubility of the compound at pH 8.5; type: physicochemical
smiles,measurement,setting,value
O=C(O)c1ccc(NC(=O)[C@H](CC2CCCCC2)n2cnc(S(=O)(=O)C3CC3)c2)nc1,Papp,[1],0.5 ×10⁻⁶ cm/s
same,logD,[2],-0.25
same,fold change (FC),[3],1.5
same,fold change (FC),[4],0.08
same,EC50,Hexokinase-4 [5],113 nM
O=C(O)c1ccc(NC(=O)[C@H](CC2CCCC2)n2cnc(S(=O)(=O)C3CCC3)c2)nc1 [listing 1 of 2 here],CLint scaled,[6],< 8 mL/min/kg
same,Drug uptake,[7],55%
same,Drug uptake,[8],12 µL/min/mg
same,Drug uptake,[9],22 µL/min/mg
same,Papp,[10],1.4 ×10⁻⁶ cm/s
same,Papp,[11],1.3 ×10⁻⁶ cm/s
same,Papp,[12],2 ×10⁻⁶ cm/s
same,uptake ratio,OATP1B3,2.3
same,uptake ratio,OATP1B1,4.1
same,IC50,Hexokinase-4 [13],1700 nM
same,Activity,Rattus norvegicus [14],15.4%
same,Ratio AUC,Rattus norvegicus [15],3.5
same,Ratio AUC,Rattus norvegicus [16],2
same,bioavailability,[17],< 5%
same,bioavailability,[18],< 1%
same,Vd,[19],0.4 L/kg
same,Vd,[20],0.8 L/kg
same,half-life,[21],42 min
same,half-life,[22],12 min
same,clearance,[23],18 mL/min/kg
same,clearance,[24],96 mL/min/kg
same,Cmax,[25],12.8 ng/mL
same,Cmax,[26],6350 ng/mL
same,Cmax,[27],2.5 ng/mL
same,Cmax,[28],1400 ng/mL
same,AUC(0-t) at 24 h,[29],36.6 ng·h/mL
same,AUC(0-t) at 24 h,[30],932 ng·h/mL
same,AUC(0-t) at 24 h,[31],176 ng·h/mL
same,AUC(0-t) at 24 h,[32],3.4 ng·h/mL
same,EC50,Hexokinase-4 [33],174000 nM
same,solubility kinetic,[34],0.428 mM
same,Papp,[1],0.5 ×10⁻⁶ cm/s
same,logD,[2],-0.1
same,EC50,Hexokinase-4 [5],201 nM
O=C(O)c1ccc(NC(=O)[C@H](CC2CCCC2)n2cnc(S(=O)(=O)C3CCC3)c2)nc1 [listing 2 of 2 here],fold change (FC),[3],1.35
same,fold change (FC),[4],0.06
O=C(O)c1ccc(NC(=O)[C@H](CC2CCOCC2)n2cnc(S(=O)(=O)C3CCC3)c2)nc1,Papp,[1],0.9 ×10⁻⁶ cm/s
same,logD,[2],-1.55
same,EC50,Hexokinase-4 [5],> 10000 nM
O=C([O-])c1ccc(NC(=O)[C@H](CC2CCCC2)n2cnc(S(=O)(=O)C3CCC3)c2)nc1.[Na+],solubility,[35],41 mM

# Reference: ChEMBL document CHEMBL3091348, “Discovery of an intravenous hepatoselective glucokinase activator for the treatment of inpatient hyperglycemia” (Bioorg Med Chem Lett, 2013)
